Patent US7186831B2, “5-halo-2-alkyl[1,2,4]triazolo[1,5-a]pyrimidin-7-amines” (priority 2001, dated 2007)

Test: log P by HPLC
Assay type: physicochemical
Conditions: HPLC, gradient method, acetonitrile/0.1% aqueous phosphoric acid; EEC directive 79/831 Annex V. A8

Compound	logP
CN(C)c1c(-c2ccccc2Cl)c(Cl)nc2nc(C3CC3)nn12 [compound 36]	3.13
CCc1nc2nc(Cl)c(-c3c(F)cc(F)cc3F)c(NNC(C)C)n2n1 [compound 49]	3.05
Cc1nc2nc(Cl)c(-c3c(F)cc(F)cc3F)c(N3CC(C)OC(C)C3)n2n1 (stereo not drawn) [compound 58]	3
Cc1nc2nc(Cl)c(-c3c(F)cc(F)cc3F)c(N3CCCC3)n2n1 [compound 59]	2.86
Cc1nc2nc(Cl)c(-c3c(F)cc(F)cc3F)c(N3CCCCC3)n2n1 [compound 60]	3.43
CCCNc1c(-c2c(F)cc(F)cc2F)c(Cl)nc2nc(C)nn12 [compound 61]	2.75
Cc1nc2nc(Cl)c(-c3c(F)cc(F)cc3F)c(NC3CCCC3)n2n1 [compound 62]	3.23
CCN(CC)c1c(-c2c(F)cc(F)cc2F)c(Cl)nc2nc(C)nn12 [compound 63]	3.23
COCCNc1c(-c2c(F)cc(F)cc2F)c(Cl)nc2nc(C)nn12 [compound 64]	2.34
Cc1nc2nc(Cl)c(-c3c(F)cc(F)cc3F)c(NC3CC3)n2n1 [compound 65]	2.51
Cc1nc2nc(Cl)c(-c3c(F)cc(F)cc3F)c(N3CCSCC3)n2n1 [compound 66]	3.09
Cc1nc2nc(Cl)c(-c3c(F)cc(F)cc3F)c(N3CCC(C(F)(F)F)CC3)n2n1 [compound 67]	3.6
Cc1nc2nc(Cl)c(-c3c(F)cc(F)cc3F)c(NCC3CC3)n2n1 [compound 68]	2.86
Cc1nc2nc(Cl)c(-c3c(F)cc(F)cc3F)c(NC(C)C(F)(F)F)n2n1 (stereo not drawn) [compound 69]	3.04
Cc1nc2nc(Cl)c(-c3c(F)cc(F)cc3F)c(NCCC(F)(F)F)n2n1 [compound 70]	2.85
CCc1nc2nc(Cl)c(-c3c(F)cc(F)cc3F)c(N3CC(C)OC(C)C3)n2n1 (stereo not drawn) [compound 71]	3.57
CCc1nc2nc(Cl)c(-c3c(F)cc(F)cc3F)c(N3CCCC3)n2n1 [compound 72]	3.29
CCc1nc2nc(Cl)c(-c3c(F)cc(F)cc3F)c(N3CCCCC3)n2n1 [compound 73]	3.94
CCCNc1c(-c2c(F)cc(F)cc2F)c(Cl)nc2nc(CC)nn12 [compound 74]	3.14
CCc1nc2nc(Cl)c(-c3c(F)cc(F)cc3F)c(NC3CCCC3)n2n1 [compound 75]	3.66
CCc1nc2nc(Cl)c(-c3c(F)cc(F)cc3F)c(NC(C)C)n2n1 [compound 76]	3.15

Compound	logP
CCc1nc2nc(Cl)c(-c3c(F)cc(F)cc3F)c(N(CC)CC)n2n1 [compound 77]	3.71
CCc1nc2nc(Cl)c(-c3c(F)cc(F)cc3F)c(NCCOC)n2n1 [compound 78]	2.68
CCc1nc2nc(Cl)c(-c3c(F)cc(F)cc3F)c(NC3CC3)n2n1 [compound 79]	2.85
CCc1nc2nc(Cl)c(-c3c(F)cc(F)cc3F)c(N3CCSCC3)n2n1 [compound 80]	3.53
CCc1nc2nc(Cl)c(-c3c(F)cc(F)cc3F)c(NCC3CC3)n2n1 [compound 81]	3.23
Cc1nc2nc(Cl)c(-c3ccc(F)c(Cl)c3)c(NC(C)C)n2n1 [compound 82]	3.01
Cc1nc2nc(Cl)c(-c3c(F)cc(F)cc3F)c(N3CC=CCC3)n2n1 [compound 83]	3.2
CC(C)NNc1c(-c2c(F)cc(F)cc2F)c(Cl)nc2nc(C(F)(F)F)nn12 [compound 84]	3.68
CC1=CCCN(c2c(-c3c(F)cc(F)cc3F)c(Cl)nc3nc(C)nn23)C1 [compound 85]	3.57
Cc1nc2nc(Cl)c(-c3c(F)cc(F)cc3F)c(N(C)C)n2n1 [compound 86]	2.49
CCNc1c(-c2c(F)cc(F)cc2F)c(Cl)nc2nc(C)nn12 [compound 87]	2.44
Cc1nc2nc(Cl)c(-c3c(F)cc(F)cc3F)c(NC(C)(C)C(F)(F)F)n2n1 [compound 88]	3.7
Cc1nc2nc(Cl)c(-c3c(F)cc(F)cc3F)c(N3CCOCC3)n2n1 [compound 89]	2.43
CNc1c(-c2c(F)cc(F)cc2F)c(Cl)nc2nc(C)nn12 [compound 90]	2.12
CCNc1c(-c2c(F)cc(F)cc2F)c(Cl)nc2nc(CC)nn12 [compound 91]	2.78
CCc1nc2nc(Cl)c(-c3c(F)cc(F)cc3F)c(N3CCOCC3)n2n1 [compound 92]	2.8
CCc1nc2nc(Cl)c(-c3c(F)cc(F)cc3F)c(NC)n2n1 [compound 93]	2.44
CCc1nc2nc(Cl)c(-c3c(F)cc(F)cc3F)c(N3CCCCC3C(F)(F)F)n2n1 (stereo not drawn) [compound 94]	4.27
C=C(C)CN(CC)c1c(-c2c(F)cc(F)cc2F)c(Cl)nc2nc(C(F)(F)F)nn12 [compound 95]	4.69
C=C(C)CN(CC)c1c(-c2ccc(F)cc2F)c(Cl)nc2nc(C)nn12 [compound 96]	3.73
Cc1nc2nc(Cl)c(-c3ccc(F)c(Cl)c3)c(NC(C)C(F)(F)F)n2n1 (stereo not drawn) [compound 97]	3.32

Compound	logP
Cc1nc2nc(Cl)c(-c3c(F)cc(F)cc3F)c(N3CCC(O)C3)n2n1 (stereo not drawn) [compound 98]	1.85
Cc1nc2nc(Cl)c(-c3c(F)cc(F)cc3F)c(N3CCCC(O)C3)n2n1 (stereo not drawn) [compound 99]	2.15
CN(C)c1c(-c2c(F)cc(F)cc2F)c(Cl)nc2nc(C(F)(F)F)nn12 [compound 100]	3.6
CC1CN(c2c(-c3c(F)cc(F)cc3F)c(Cl)nc3nc(C(F)(F)F)nn23)CC(C)O1 (stereo not drawn) [compound 101]	4.18
CCNc1c(-c2c(F)cc(F)cc2F)c(Cl)nc2nc(C(F)(F)F)nn12 [compound 102]	3.5
Fc1cc(F)c(-c2c(Cl)nc3nc(C(F)(F)F)nn3c2N2CCCC2)c(F)c1 [compound 103]	3.92
Fc1cc(F)c(-c2c(Cl)nc3nc(C(F)(F)F)nn3c2N2CCCCC2)c(F)c1 [compound 104]	4.46
CC(C)(Nc1c(-c2c(F)cc(F)cc2F)c(Cl)nc2nc(C(F)(F)F)nn12)C(F)(F)F [compound 105]	4.37
CCCNc1c(-c2c(F)cc(F)cc2F)c(Cl)nc2nc(C(F)(F)F)nn12 [compound 106]	3.82
COCCNc1c(-c2c(F)cc(F)cc2F)c(Cl)nc2nc(C(F)(F)F)nn12 [compound 107]	3.38
CNc1c(-c2c(F)cc(F)cc2F)c(Cl)nc2nc(C(F)(F)F)nn12 [compound 108]	3.17
Fc1cc(F)c(-c2c(Cl)nc3nc(C(F)(F)F)nn3c2N2CCCCC2C(F)(F)F)c(F)c1 (stereo not drawn) [compound 109]	4.76
Fc1cc(F)c(-c2c(Cl)nc3nc(C(F)(F)F)nn3c2N2CCSCC2)c(F)c1 [compound 110]	4.09
Fc1cc(F)c(-c2c(Cl)nc3nc(C(F)(F)F)nn3c2NCC2CC2)c(F)c1 [compound 111]	3.89
Cc1nc2nc(Cl)c(-c3c(F)cc(F)cc3F)c(N3CCSC3)n2n1 [compound 112]	2.84
Cc1nc2nc(Cl)c(-c3c(F)cc(F)cc3F)c(NC(C)C(F)(F)F)n2n1 (stereo not drawn) [compound 113]	3.03
C=C(C)CN(CC)c1c(-c2c(F)cccc2Cl)c(Cl)nc2nc(C)nn12 [compound 114]	3.91
COC(=O)C(CO)Nc1c(-c2c(F)cc(F)cc2F)c(Cl)nc2nc(C)nn12 (stereo not drawn) [compound 115]	1.93
COCC(C)Nc1c(-c2c(F)cc(F)cc2F)c(Cl)nc2nc(C)nn12 (stereo not drawn) [compound 116]	2.64
Cc1nc2nc(Cl)c(-c3c(F)cc(F)cc3F)c(N3C(C)C=CC3C)n2n1 (stereo not drawn) [compound 117]	3.52
COC(=O)C(Nc1c(-c2c(F)cc(F)cc2F)c(Cl)nc2nc(C)nn12)C(C)C (stereo not drawn) [compound 118]	3.11

Compound	logP
COC(=O)C(COC(C)(C)C)Nc1c(-c2c(F)cc(F)cc2F)c(Cl)nc2nc(C)nn12 (stereo not drawn) [compound 120]	3.47
Cc1nc2nc(Cl)c(-c3c(F)cc(F)cc3F)c(NC(C)CO)n2n1 (stereo not drawn) [compound 122]	1.93
COC(OC)C(C)Nc1c(-c2c(F)cc(F)cc2F)c(Cl)nc2nc(C)nn12 (stereo not drawn) [compound 123]	2.74
COC(=O)C(C)Nc1c(-c2c(F)cc(F)cc2F)c(Cl)nc2nc(C)nn12 (stereo not drawn) [compound 124]	2.45
COC(=O)CNc1c(-c2c(F)cc(F)cc2F)c(Cl)nc2nc(C)nn12 [compound 125]	2.13
Cc1nc2nc(Cl)c(-c3c(F)cc(F)cc3F)c(NC(C)C(=O)OC(C)(C)C)n2n1 (stereo not drawn) [compound 126]	3.44
CCc1nc2nc(Cl)c(-c3c(F)cc(F)cc3F)c(N(N)CC(C)C)n2n1 [compound 127]	3.47
CCN(CCOC)c1c(-c2ccc(F)cc2F)c(Cl)nc2nc(C)nn12 [compound 128]	2.84
Cc1nc2nc(Cl)c(-c3c(F)cc(F)cc3F)c(N(N)CC(C)C)n2n1 [compound 129]	3.06
Cc1nc2nc(Cl)c(-c3c(F)cccc3Cl)c(N(N)CC(C)C)n2n1 [compound 130]	3.12
Cc1nc2nc(Cl)c(-c3ccc(F)c(Cl)c3)c(N(N)CC(C)C)n2n1 [compound 131]	3.31
Cc1nc2nc(Cl)c(-c3c(F)cccc3Cl)c(NC(C)C(F)(F)F)n2n1 (stereo not drawn) [compound 132]	3.01
C=C(C)CN(CC)c1c(-c2ccccc2Cl)c(Cl)nc2nc(C)nn12 [compound 133]	3.9
Cc1nc2nc(Cl)c(-c3c(F)cc(F)cc3F)c(NC(C)C(C)C)n2n1 (stereo not drawn) [compound 134]	3.37
Cc1nc2nc(Cl)c(-c3c(F)cccc3F)c(NOCC(C)C)n2n1 [compound 135]	2.88
CCONc1c(-c2c(F)cccc2F)c(Cl)nc2nc(C)nn12 [compound 136]	2.22
Cc1nc2nc(Cl)c(-c3c(F)cccc3F)c(NOCc3cccc(Cl)c3)n2n1 [compound 137]	3.21
Cc1nc2nc(Cl)c(-c3c(F)cccc3F)c(NOCc3ccc(Cl)cc3)n2n1 [compound 138]	3.23
CCC(C)ONc1c(-c2c(F)cccc2F)c(Cl)nc2nc(C)nn12 (stereo not drawn) [compound 139]	2.78
C=CCONc1c(-c2c(F)cccc2F)c(Cl)nc2nc(C)nn12 [compound 140]	2.38
Cc1nc2nc(Cl)c(-c3c(F)cccc3F)c(NOC(C)(C)C)n2n1 [compound 141]	2.68
